Literature values, collected in patent US20250017941A1, “METHODS OF TREATING NON-HODGKIN LYMPHOMA USING 2-(2,6-DIOXOPIPERIDIN-3-YL)-4-((2-FLUORO-4-((3-MORPHOLINOAZETIDIN-1-YL)METHYL)BENZYL)AMINO)ISOINDOLINE-1,3-DIONE” (Celgene Corporation, priority 2021, published 2025).
Where two headings read alike, the source gives them in different places.

Legend:
[1] = tested on: patients with FL who had received 2 or more prior systemic therapies
[2] = tested on: adult patients with CD20-positive indolent non-Hodgkin lymphoma refractory to rituximab
[3] = 53 patients with EZH2 wild-type status, 800 mg orally twice daily
[4] = tafasitamab in combination with lenalidomide, R/R DLBCL
[5] = tafasitamab in combination with lenalidomide, listed with the G3/4 events

CCN(c1cc(-c2ccc(CN3CCOCC3)cc2)cc(C(=O)NCc2c(C)cc(C)[nH]c2=O)c1C)C1CCOCC1 [Tazemetostat, N-[(1,2-dihydro-4,6-dimethyl-2-oxo-3-pyridinyl)methyl]-5-[ethyl (tetrahydro-2H-pyran-4-yl)amino]-4-methyl-4′-(4-morpholinylmethyl)-[1,1′-biphenyl]-3-carboxamide]
Grade 3/4 anemia, patients ([1]; 800 mg orally twice daily): 8% | Grade 3/4 neutropenia, patients ([1]; 800 mg orally twice daily): 7% | Grade 3/4 thrombocytopenia, patients ([1]; 800 mg orally twice daily): 7% | Serious AEs, patients ([1]; 800 mg orally twice daily): 30% | CR rate ([1]; 42 patients with EZH2 mutated status, 800 mg orally twice daily): 12% | ORR ([1]; 42 patients with EZH2 mutated status, tazemetostat 800 mg orally twice daily): 69% | CR rate [1, 3]: 4% | ORR [1, 3]: 34% | mDOR ([1]; EZH2 wild-type cohort, 800 mg orally twice daily): 13 months | most common AEs of all grades, frequency ([1]; fatigue, upper respiratory tract infection, nausea, abdominal pain and musculoskeletal pain): ≥ 20% | most common serious AEs, patients ([1]; general physical health deterioration, abdominal pain, pneumonia, sepsis and anemia): at least 2% | mDOR ([1]; patients with EZH2 mutated status, 800 mg orally twice daily): 10.9 months

tafasitamab: anti-CD19 monoclonal antibody; results are for the combination with lenalidomide
objective response rate (ORR) (patients with R/R DLBCL; tafasitamab 12 mg/kg intravenously in combination with lenalidomide 25 mg orally, R/R DLBCL, 81 participants): 60% | complete response (CR) rate (patients with R/R DLBCL; tafasitamab 12 mg/kg intravenously in combination with lenalidomide, R/R DLBCL, 81 participants): 34% | G3/4 febrile neutropenia, patients (patients with R/R DLBCL; [4]): 12% | G3/4 neutropenia, patients (patients with R/R DLBCL; [4]): 48% | Serious AEs, patients (patients with R/R DLBCL; [4]): 52% | Serious AEs: febrile neutropenia, patients (patients with R/R DLBCL; [4]): 6% | Serious AEs: pneumonia, patients (patients with R/R DLBCL; [4]): 6% | median duration of response (patients with R/R DLBCL; [4]): 21.7 months | anemia, patients (patients with R/R DLBCL; [5]): 7% | thrombocytopenia, patients (patients with R/R DLBCL; [5]): 17% | most common adverse events (AEs) of all grades, frequency (patients with R/R DLBCL; tafasitamab in combination with lenalidomide, neutropenia, fatigue, anemia, diarrhea, thrombocytopenia, cough, pyrexia, peripheral edema, rash, decreased appetite): ≥ 20%

Cn1c(CCCC(=O)O)nc2cc(N(CCCl)CCCl)ccc21 [bendamustine]
PFS (primary endpoint) ([2]; median follow-up 21.9 months (obinutuzumab plus bendamustine) and 20.3 months (bendamustine monotherapy)): 14.9 months | Febrile neutropenia, occurrence ([2]; per arm): uncommon | Grade 3/4 anemia, patients ([2]; per arm): 8% | Grade 3/4 neutropenia, patients ([2]; per arm): 26% | Grade 3/4 thrombocytopenia, patients ([2]; per arm): 15% | Serious AEs, patients ([2]; per treatment group): 33% | deaths due to adverse events, patients ([2]; per treatment group): 6%
